# In paper PMC3454376, “Salidroside Improves Behavioral and Histological Outcomes and Reduces Apoptosis via PI3K/Akt Signaling after Experimental Traumatic Brain Injury” (PLoS ONE, 2012):
# Test system: mice subjected to controlled cortical impact injury
# Test: Modified neurological severity score (mNSS) after CCI
# Format: in vivo
# Description: All animal procedures were approved by the Animal Research Committee at Cheng Hsin General Hospital (Animal permit number […] 101-08), and all procedures complied with the Guide for the Care and Use of Laboratory Animals published by the US National Institutes of Health (NIH Publication No. 85-23, revised 1996). Animals were housed under a 12-h light/dark cycle and at constant temperature (21-25°C) and humidity (45-50%). They were allowed free access to pellet chow and water. TBI in mice was induced by a CCI injury model as previously described. Briefly, 8-week-old male C57BL/6 mice (weighing 22-25 g) were anesthetized through the use of intraperitoneal injection of sodium pentobarbital (65 mg/kg; Rhone Merieux, Harlow, UK) and placed in a stereotaxic frame. A 5 mm craniotomy was performed over the right parietal cortex, centered on the coronal suture and 0.1 mm lateral to the sagittal suture, and injury to dura was avoided. […] Body temperature was monitored throughout the surgery by a rectal probe; temperature was maintained at 37.0±0.5°C using a heated pad. […] To determine the optimal dose of salidroside, a pilot study was performed using 2 different doses (20 and 50 mg/kg) administered 10 min after injury, and neurological deficits and tissue damage were evaluated as the main outcomes. […]
smiles,measurement,setting,value
"OC[C@H]1O[C@@H](OCCc2ccc(O)cc2)[C@H](O)[C@@H](O)[C@@H]1O [SALD, salidroside]",mNSS scores versus vehicle group,"20 mg/kg ip 10 min after CCI, days 4, 14, 21, 28, all P<0.05",significant lower
same,mNSS scores versus vehicle group,"50 mg/kg ip 10 min after CCI, days 14, 21, 28, P<0.05",significantly lower
